Reference: patent US20060063711A1, “Use of sglt homolog” (priority 2002, published 2006)

How the values were obtained:
[1] = target: T1, human SGLT1 (Homo sapiens, UniProt P13866); assay: kinetic analysis of glucose uptake in human SGLT1-transfected COS7 cells
T1 sequence (P13866 1-664): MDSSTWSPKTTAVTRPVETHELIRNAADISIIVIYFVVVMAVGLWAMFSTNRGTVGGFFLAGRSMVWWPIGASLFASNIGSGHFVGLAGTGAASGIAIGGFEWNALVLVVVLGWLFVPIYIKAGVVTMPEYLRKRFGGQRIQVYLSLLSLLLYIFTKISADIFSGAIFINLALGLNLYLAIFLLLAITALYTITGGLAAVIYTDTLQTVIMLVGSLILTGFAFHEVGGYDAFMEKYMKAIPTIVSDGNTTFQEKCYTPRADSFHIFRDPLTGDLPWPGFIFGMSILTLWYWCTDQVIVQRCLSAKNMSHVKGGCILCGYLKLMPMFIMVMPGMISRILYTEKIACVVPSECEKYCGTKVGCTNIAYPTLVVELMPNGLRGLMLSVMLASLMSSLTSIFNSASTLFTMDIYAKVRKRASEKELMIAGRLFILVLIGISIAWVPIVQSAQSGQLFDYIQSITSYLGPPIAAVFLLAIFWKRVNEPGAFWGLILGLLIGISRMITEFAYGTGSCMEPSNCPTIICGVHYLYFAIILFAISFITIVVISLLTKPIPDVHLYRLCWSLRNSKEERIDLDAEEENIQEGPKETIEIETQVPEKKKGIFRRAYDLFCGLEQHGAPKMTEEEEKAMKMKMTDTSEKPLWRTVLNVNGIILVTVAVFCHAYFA
Protocol: (§2) The human SGLT homolog or the human SGLT1-transfected COS7 cells were prepared and subjected to kinetic analysis of glucose uptake, respectively. […] The cells were plated on 100 μl of DMEM medium containing 10% FBS charged in a 96-well plate in a cell density of 3×10^4 cells/well, followed by culturing overnight at 37° C. […] Then 90 μl each of the thus prepared mixtures was added per well. In addition, 10 μl each of α-methyl glucose in a final concentration of 1 mM, which contained 0.02 μCi of [^14C]-α-methyl glucose (Amersham Pharmacia Biotech, Inc.), was added per well to carry out a glucose uptake reaction for an hour. After washing 3 times with 200 μl of chilled PBS, 100 μl each of liquid scintillator was added per well and the radioactivity of ^14C taken up into the cells was counted with a scintillation counter to determine Km and Vmax in the glucose uptake.

[2] = target: T2, human SGLT homolog (Homo sapiens, UniProt Q2M3M2, I269M); assay: kinetic analysis of glucose uptake in human SGLT homolog-transfected COS7 cells
T2 sequence (Q2M3M2 8-681 I269M limits assumed): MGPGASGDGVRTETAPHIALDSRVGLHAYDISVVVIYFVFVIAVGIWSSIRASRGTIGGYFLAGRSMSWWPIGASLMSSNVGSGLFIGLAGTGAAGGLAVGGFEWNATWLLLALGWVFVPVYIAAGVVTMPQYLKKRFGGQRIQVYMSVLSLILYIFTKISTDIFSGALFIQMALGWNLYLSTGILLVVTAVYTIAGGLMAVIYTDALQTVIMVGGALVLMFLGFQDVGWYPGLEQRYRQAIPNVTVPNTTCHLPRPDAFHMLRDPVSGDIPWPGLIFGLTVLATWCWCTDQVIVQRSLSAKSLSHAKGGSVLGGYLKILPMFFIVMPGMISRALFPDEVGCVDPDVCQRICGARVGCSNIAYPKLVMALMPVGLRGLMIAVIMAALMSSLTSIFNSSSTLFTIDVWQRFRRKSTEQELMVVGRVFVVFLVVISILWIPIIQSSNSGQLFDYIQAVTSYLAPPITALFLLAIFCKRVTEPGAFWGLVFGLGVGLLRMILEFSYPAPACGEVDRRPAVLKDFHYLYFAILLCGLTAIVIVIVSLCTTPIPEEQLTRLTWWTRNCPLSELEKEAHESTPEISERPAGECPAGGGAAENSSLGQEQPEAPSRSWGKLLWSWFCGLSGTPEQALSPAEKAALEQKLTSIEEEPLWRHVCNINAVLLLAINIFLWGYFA
Protocol: as §2

[3] = target: T2, human SGLT homolog; assay: substrate specificity, α-methyl glucose uptake test in human SGLT homolog-transfected COS7 cells; assay type: cell-based; set-up: expressed in transfected cells; host or cells: COS7 cells; details: sugar added at 0, 1 and 10 mM
Protocol: (§1) The human SGLT homolog or human SGLT1-transfected COS7 cells were prepared and the respective substrate specificities were examined. The α-methyl glucose uptake test was carried out in accordance with the procedures described in Am. J. Physiol., 270: G833-G843, 1996 and J. Clin. Invest., 93: 397-404, 1994. The cells were plated on 100 μl of DMEM medium containing 10% FBS charged in a 96-well plate in a cell density of 3×10^4 cells/well, followed by culturing overnight at 37° C. Each well was washed 3 times with a reaction buffer solution supplemented with 125 mM N-Methyl-D-Glucamine (1.2 mM KH2PO4, 2.5 mM CaCl2, 1.2 mM MgSO4, 4 mM Glutamine, 10 mM HEPES (pH 7.2), 0.1 mg/ml BSA) and further cultured for an hour in the same buffer solution to remove the glucose remained in the cells. Next, 150 mM NaCl was added to the reaction buffer solution above and glucose or galactose was added to the mixture in 0, 1 and 10 mM, respectively. Then 90 μl each of the thus prepared mixtures was added per well. […] After washing 3 times with 200 μl of chilled PBS, 100 μl each of liquid scintillator was added per well and the radioactivity of ^14C taken up into the cells was counted with a scintillation counter.

[4] = target: T1, human SGLT1; assay: substrate specificity, α-methyl glucose uptake test in human SGLT1-transfected COS7 cells; assay type: cell-based; set-up: expressed in transfected cells; host or cells: COS7 cells; details: sugar added at 0, 1 and 10 mM
Protocol: as §1

[5] = read-out: Km in the glucose uptake, α-methyl glucose 0 to 20 mM, 150 mM NaCl
[6] = α-methyl glucose 0 to 20 mM, 150 mM NaCl

SMILES	Km [1, 5]	Vmax in the glucose uptake [1, 6]	Km [2, 5]	Vmax in the glucose uptake [2, 6]	affinity (competition of α-methyl glucose uptake) [3]	affinity (competition of α-methyl glucose uptake) [4]
COC1OC(CO)C(O)C(O)C1O (stereo not drawn) [α-methyl glucose]	1.8 mM	3.9 nmol/hour/106 cells	7.9 mM	8.0 nmol/hour/106 cells	–	–
O=C[C@H](O)[C@@H](O)[C@@H](O)[C@H](O)CO [galactose]	–	–	–	–	little affinity	had affinity
